# Experiment: Human HepG2 cell viability assay in 384 well format
# Format: toxicity, cell-based
# Set-up: dose 125 nL, time 70.5 hour; concentration not given beside the values
# Settings: HepG2 cells, read-out: Inhibition
row,SMILES,cytotoxicity at 70.5 h [%]
1,CNC(=O)c1ccc(CN(C)C(=O)Nc2nnc(C(C)C)s2)cc1,2.68
2,Cc1noc(C)c1CN1CCOCC12CCN(c1cnccn1)CC2,-6.5
3,COc1cccc(C(=O)N2CCOCC2CN(C)C)c1OC (centres undefined),-2.02
4,CCC[C@H]1CN(S(C)(=O)=O)C[C@@H]1NC(=O)CCCn1ccnc1,1.51
5,Cc1occc1C(=O)N1CCCn2cnc(CN3CCCC3=O)c2C1,-0.779
6,Cc1ccc(-c2cc(C(=O)NCCN3CCOCC3)n[nH]2)s1,-3.46
7,CC(=O)N1CCC(C(=O)NCCN2CCC(C)CC2)CC1,-2.37
8,Cc1nn(C)c(C)c1C(=O)NCc1ccnc(OCC(F)(F)F)c1,-4.39
9,CC(C)NC(=O)c1nc(COc2ccc3c(c2)OCO3)no1,-8.71
10,COc1cc(CN(C)C(=O)NCc2cccnc2OC)ccc1SC,-0.299
11,Cn1cnc(S(=O)(=O)N2CC3(CCN(Cc4ccncc4)C3)C2)c1,-6.66
12,Cn1cc(CNC2CC3(CCN(CC4CC4)CC3)c3ccccc32)cn1 (centres undefined),-2.11
13,Cc1csc(N(C)C(=O)C2CC(=O)N(c3ccccc3Cl)C2)n1 (centres undefined),4.48
14,COc1cccc2c1OCCCN(Cc1c[nH]nc1C(=O)O)C2,-9
15,CC(=O)Nc1ccc(S(=O)(=O)NC(=O)CCC2CCCO2)cc1 (centres undefined),26.4
16,CNc1ncc(C(=O)N[C@H]2CN(CCCSC)C[C@@H]2C2CC2)cn1,-5.85
17,Cc1cccc(-c2noc([C@@H]3C[C@@H](O)CN3CC3CCCCC3)n2)c1,-1.98
18,O=C(Nc1cccnc1)[C@H]1C[C@@H]2CCN(c3nncs3)C[C@H]2O1,-1.35
19,Cc1nn(C)c(C)c1NC(=O)CN1CCc2c(nc(C3CC3)n2C)C1,12.4
20,CN(Cc1cn2c(n1)CN(C(=O)CC1CC1)CC2)Cc1ccco1,-4.98
21,CC1CCN(C[C@H]2CN3CC[C@H]2C[C@@H]3CNC(=O)c2ccco2)CC1,19.1
22,CCc1nc(CN(C)C2CCCN(c3cccnn3)C2)no1 (centres undefined),16.7
23,Cc1ccc(CN2C[C@@H](c3ccccc3)[C@@]3(CCNC3=O)C2)o1,2.86

row,SMILES,cytotoxicity at 70.5 h [%]
1,c1cnc(NC[C@H]2OC[C@@H]3CCN(Cc4nccs4)C[C@@H]32)nc1,21.4
2,CN(C)C(CNC(=O)OCC(F)(F)F)c1ccsc1 (centres undefined),-8.54
3,OC1(CNC2CCN(c3ccccn3)CC2)CCc2ccccc21 (centres undefined),-6.83
4,CCn1ncc2c1CCCC2NCc1cc(C)ccc1OC (centres undefined),-12.5
5,O=C(c1cc(C2CCCC2)no1)N1CC(O)C1,-3.97
6,CCCn1nc(C)c(-c2cncn2CCN(C)C2CCCC2)c1C,-4.61
7,CS(=O)(=O)NCC1(O)CCCN(C(=O)CCn2cc(Cl)cn2)CC1 (centres undefined),-1.38
8,Cc1cnc(N2CC3(CCN(C(=O)c4ccoc4)C3)C2)nc1,-2.31
9,COc1ccc(C(C)NC(=O)c2nn(C)c(C)c2Br)cc1 (centres undefined),-2.4
10,COc1cc(C)sc1C(=O)NCCC(=O)N(C)Cc1ccccc1,-3.28
11,COc1cccc(-c2cc(NCc3cscn3)n(C)n2)c1,-7.72
12,c1cncc(CN2CC(Cc3nccc4cc[nH]c34)C2)c1,-3.48
13,Cn1ccc2c(C(=O)NCCCN3CCOCC3)cccc21,11.5
14,CC(=O)N1CCCN(S(=O)(=O)c2cc3ccccc3o2)CC1,0.284
15,COCCNc1ccccc1CNC(=O)NCc1nc(C)c(C)s1,-7.21
16,Cc1ccc(C(NC(=O)CN2CCc3cncnc3C2)C2CC2)cc1 (centres undefined),-13.1
17,Cn1c2ccc(F)cc2c2ncn(CCCN(CCO)CCO)c(=O)c21,18.9
18,COc1c(C2CCCN2C(=O)c2cc(C3CC3)on2)c(C)nn1C (centres undefined),-5.95
19,Cc1cc(OCC(=O)N2CCCC(c3noc(C)n3)C2)no1 (centres undefined),-5.48
20,Cc1ccc(CN2CCC3(CCCN(S(C)(=O)=O)C3)C2)o1 (centres undefined),-12.7
21,CCc1nc(N2CCC3(CC2)OCCCC3O)ncc1C (centres undefined),-2.39
22,O=C1[C@@H]2CCN(Cc3ccoc3)C[C@@H]2OCCN1Cc1cccnc1,-20.5
23,Cc1ccsc1-c1nccn1CCS(=O)(=O)N1CCCC1,8.18

row,SMILES,cytotoxicity at 70.5 h [%]
1,CN1CCO[C@@H]2CN(S(=O)(=O)c3ccccc3)CC[C@@H]2C1,-5
2,COc1ccc(CN2CCC3(CCCNC3)C2)cc1Cn1cccn1 (centres undefined),3.97
3,Cc1ccc(OCCN(C)Cc2ccc(S(=O)(=O)N(C)C)o2)cc1,-5.02
4,CCC(C)c1noc(C2CCN(C(=O)c3cccnc3)CC2)n1 (centres undefined),-12.8
5,CC(C)N1CCN(C(=O)C(C)n2cncn2)CC1 (centres undefined),5.67
6,Cc1ccc(CN2CC[C@@H]3[C@@H](CO[C@H]3CN3CCN(C)CC3)C2)cc1,-0.515
7,CCNc1ccc(-c2ccnc3c2ccn3C)nn1,-5.15
8,CC(NC(=O)Cc1ccccc1F)(C(N)=O)c1cccc(Cl)c1 (centres undefined),-6.76
9,CNc1ncc(CN2CCC(c3nnsc3S(C)(=O)=O)CC2)cn1,-7.26
10,Cc1ccc(CC(=O)N2CCCC(c3ccn[nH]3)C2)cn1 (centres undefined),0.114
11,CCC(CNS(=O)(=O)c1c[nH]cn1)Oc1ccccc1F (centres undefined),-2.67
12,CC(C)(CO)Nc1cc(-c2cn[nH]c2)ncn1,-2.91
13,Cc1ccccc1NC(=O)Nc1cc(N2CCCC2)ncn1,10.8
14,COCCN(CCOC)C(=O)c1c[nH]nc1-c1cccc(F)c1,0.751
15,COC[C@H]1CCC[C@]12CN(CCc1ccccc1)CCO2,-15.8
16,Cc1cccc(C(C(=O)N2CC(c3ccccn3)C2)N(C)C)c1 (centres undefined),-3.41
17,Cc1cc(C(=O)N2C[C@@H](CN3CCCCC3)[C@@H](CO)C2)ccc1O,-5.69
18,COC(=O)c1ccccc1NS(=O)(=O)c1c(C)nn(C)c1C,-6.21
19,Cc1ccc2cc(C3(O)CCN(C(=O)CN4CCCC4)CC3)ccc2n1,-3.01
20,CCOCC(=O)NCC1(NC(C)c2ccccc2)CCOCC1 (centres undefined),-8.52
21,Cc1nc(C)c(Cn2ccnc2-c2cc(CN(C)C)cs2)s1,2.87
22,c1cc(CN2C[C@@H]3OCCN(CCN4CCCC4)[C@@H]3C2)ccn1,-8.99
23,CN1CCC2(CC1)CN(C(=O)c1cccnc1)c1ccc(Cl)cc12,-10.6

row,SMILES,cytotoxicity at 70.5 h [%]
1,CCNC(=O)[C@@H]1C[C@@H](N)CN1C(=O)C1(c2ccc(OC)cc2)CCCC1,-9.96
2,CN(Cc1ccc(C2CC(=O)Nc3cc4[nH]ncc4cc32)o1)S(C)(=O)=O (centres undefined),-0.109
3,COc1ccc(C2Nc3cc(Cl)ccc3C3=NCCN32)cc1OC (centres undefined),42.1
4,Cc1ccc(N(C)[C@@H]2CC[C@@H]3CN(C(=O)Cc4cccs4)C[C@@H]32)nn1,-5.34
5,Cc1occc1C(=O)Nc1cnn(CCN2CCOCC2)c1,16.8
6,O=C(NCCC(O)c1cccs1)c1ccc(Br)o1 (centres undefined),-10.7
7,CCOCc1ccccc1NC(=O)NC1CCN(c2ccccc2)C1 (centres undefined),-4.36
8,Cc1ccc(C(=O)N2CCCC(Cn3cc(C(C)(C)N)nn3)C2)s1 (centres undefined),-4.81
9,CN(C)c1ncc(-c2ccc(C(N)=O)cc2)c(C2CCNC2)n1 (centres undefined),-2.25
10,CC(=O)NCC(=O)N1CCc2c(CNc3ncccn3)cncc2C1,-2.19
11,Cc1occc1CNC(=O)NCCN(C)C1CCCC1,-0.13
12,O=C(COc1coc(CN2CCCCC2)cc1=O)NCc1ccccc1,-15.4
13,O=C(c1cc(F)cc(F)c1)N1CCC2(CC1)CC2,-9.31
14,CC(NC(=O)NCc1ccc(Cl)s1)c1ccccn1 (centres undefined),-20
15,O=C(NCC1(c2ccc(F)cc2)CCCC1)N1CCOC(CO)C1 (centres undefined),2.92
16,COc1ccnc(CNc2cc(C3CC3)ncn2)c1,-11.7
17,Fc1cccc(C2CCCN2Cc2nnnn2C2CC2)c1 (centres undefined),-8.46
18,COc1ccccc1-c1nc(C(=O)N2CCOCC2)n2ccncc12,-9.1
19,CC(C)NC(=O)C1CN(C(=O)N(C)C)CC12CCOCC2 (centres undefined),-3.34
20,CC(C)CCN1CCC2(CCCN(c3nncs3)C2)C1 (centres undefined),-5.61
21,c1cnc(OCc2nnc3n2CCN(Cc2ccco2)C3)nc1,-0.839
22,CCCC1c2cccn2CCN1S(=O)(=O)N1CCOCC1 (centres undefined),-4.73
23,COc1ncc(C2(O)CCN(Cc3cc(F)ccc3F)CC2)c(OC)n1,-5.13

row,SMILES,cytotoxicity at 70.5 h [%]
1,CCOC(=O)c1nc(CC(=O)Nc2ccccc2)no1,-17.6
2,O=C(O)c1ncccc1N1CCCCC1,-14.8
3,CSc1cccc(CN(C)C(=O)Cn2ncc(N3CCCC3)cc2=O)c1,-3.66
4,FC(F)(F)CCc1ccnc(N[C@H]2CC[C@H](n3cnnc3)CC2)n1,-9.96
5,Cc1cc(CN2CCN(C(=O)CCc3cccs3)CC2)on1,-18.8
6,O=C(CCn1cnnc1)N1CCCC(c2ncc[nH]2)C1 (centres undefined),-2.12
7,CNc1cc(C)nc(NC2CCCN(C3Cc4ccccc4C3)C2)n1 (centres undefined),28.6
8,CC1(c2ncc(CN3CCOCC3)cn2)CCCCO1 (centres undefined),-1.05
9,Cc1nc(NCCCn2cccn2)c2c(n1)c(C)nn2C,-3.99
10,COC(C)C(=O)Nc1cc(C(=O)N2CCSCC2)ccc1C (centres undefined),0.013
11,COc1c(CNCCNC(=O)c2ccc(C)cc2)c(C(C)C)nn1C,-8.14
12,Cc1cc(N2CCCN(c3nc(C)nc(C)c3C)CC2)ccn1,-11
13,CC(NCC1CCN(CCO)CC1)c1ccc(Cl)cc1 (centres undefined),10.5
14,CC(=O)Nc1ccc(CCC2(NC(=O)C3CC3)CCCCC2)cn1,-0.0205
15,COC1CCCN(C(=O)NCC(C)(C)SC)C1 (centres undefined),-11.6
16,COc1ccccc1-c1ccnc2nc(N3CCCCC3)[nH]c(=O)c12,-15.7
17,Cc1ccc(CNC2(Cc3cc(-c4cccc(O)c4)on3)COC2)o1,-8.24
18,CN(C)c1nc2c(c(NCc3nnc4n3CCCCC4)n1)CCNC2,-6.97
19,Cn1ccc(CN2CCC(COC3CCCC3)CC2)cc1=O,-11
20,COc1c(C2CCCN2C(=O)c2csc(C3CC3)n2)c(C)nn1C (centres undefined),15.2
21,O=C(Cc1cccnc1)N1CCC2(CC1)CCN(C1CCOC1)C2 (centres undefined),8.42
22,CCC(C)N(C)S(=O)(=O)c1ccc(CCNC(C)=O)s1 (centres undefined),-7
